Reference: patent US5236928A, “Imidazole derivatives bearing acidic functional groups at the 5-position, their compositions and methods of use as angiotensin II antagonists” (Merck & Co., Inc., priority 1992, dated 1993)

Test system: BALB 3T3/H-ras
Experiment: BALB 3T3/H-ras inhibition activity
Format: cell-based

## CC(C)C(C)CC[C@@H](C)C1CCN=C2C3=C(CC[C@@]21C)[C@@]1(C)CC[C@H](O)CC1CC3 (stereo partly shown) [UCA1064-B]
  BALB 3T3/H-ras Inhibition Activity IC50: 3.5 µg/mL
